# In ChEMBL document CHEMBL1201862, “PubChem BioAssay data set” (2004):
# Active and inactive are the calls of the source.
# What was measured:
# [1] = test system: Streptococcus sp. 'group A'; experiment: growth inhibition of control SK(-) GAS strain, dose response, counter-screen for streptokinase expression inhibitor project, luminescence, kanamycin, BacTiterGlo, confirmation (AID 1900); type: functional, organism-based
# Streptokinase A = target: T1, Streptokinase A (Streptococcus pyogenes serotype M1, UniProt P10520); experiment: S. pyogenes streptokinase expression inhibitors, potency, dose response, plasminogen activation absorbance, OD405 (AID 1914); type: functional, Streptococcus pyogenes M1 GAS;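 further: secreted streptokinase activity via plasminogen activation per viability signal from cell pellet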
# T1 sequence (P10520 whole entry): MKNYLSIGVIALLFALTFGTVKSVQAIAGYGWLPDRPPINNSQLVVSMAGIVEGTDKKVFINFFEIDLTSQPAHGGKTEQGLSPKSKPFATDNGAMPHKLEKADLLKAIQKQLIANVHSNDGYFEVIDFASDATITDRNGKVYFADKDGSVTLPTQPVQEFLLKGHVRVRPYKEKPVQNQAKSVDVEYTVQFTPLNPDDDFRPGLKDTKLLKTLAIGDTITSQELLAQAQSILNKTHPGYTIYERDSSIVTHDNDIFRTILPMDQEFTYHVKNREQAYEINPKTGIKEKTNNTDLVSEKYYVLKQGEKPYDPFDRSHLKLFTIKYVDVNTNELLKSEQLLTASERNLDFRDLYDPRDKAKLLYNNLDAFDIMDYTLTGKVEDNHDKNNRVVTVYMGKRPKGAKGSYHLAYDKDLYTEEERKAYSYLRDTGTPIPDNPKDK
# [2] = inhibitors of intracellular T. cruzi replication, confirmation, NIH3T3 host cells, beta-gal luminescence (AID 2044); type: functional, cell-based;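 further: intracellular parasites grown in NIH/3T3 mouse fibroblasts as host cells; luminescent beta-galactosidase reporter signal from transgenic T. cruzi replicating inside host cells; inhibitors lower the luminescence signal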
# [3] = cytotoxicity toward NIH3T3 fibroblasts, dose response, counter-screen, cell-based, ATP luminescence, mouse fibroblasts (AID 2010); type: functional;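 further: cells exposed to compound for about 90 hours before reading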
# Streptococcus = experiment: Group A Streptococcus viability loss, dose response, counter-screen for streptokinase expression inhibitor project, luminescence, BacTiterGlo (AID 1915); type: functional, organism-based;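 further: potency for reduction of bacterial viability or growth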
# [4] = target: Broad substrate specificity ATP-binding cassette transporter ABCG2 (Homo sapiens, UniProt Q9UNQ0); experiment: ABCG2 efflux pump inhibitors, dose response, Ig-MXP3 cells, flow cytometry (AID 1690); type: functional
# Chain of Broad substrate specificity ATP-binding cassette transporter ABCG2 (Q9UNQ0 whole entry): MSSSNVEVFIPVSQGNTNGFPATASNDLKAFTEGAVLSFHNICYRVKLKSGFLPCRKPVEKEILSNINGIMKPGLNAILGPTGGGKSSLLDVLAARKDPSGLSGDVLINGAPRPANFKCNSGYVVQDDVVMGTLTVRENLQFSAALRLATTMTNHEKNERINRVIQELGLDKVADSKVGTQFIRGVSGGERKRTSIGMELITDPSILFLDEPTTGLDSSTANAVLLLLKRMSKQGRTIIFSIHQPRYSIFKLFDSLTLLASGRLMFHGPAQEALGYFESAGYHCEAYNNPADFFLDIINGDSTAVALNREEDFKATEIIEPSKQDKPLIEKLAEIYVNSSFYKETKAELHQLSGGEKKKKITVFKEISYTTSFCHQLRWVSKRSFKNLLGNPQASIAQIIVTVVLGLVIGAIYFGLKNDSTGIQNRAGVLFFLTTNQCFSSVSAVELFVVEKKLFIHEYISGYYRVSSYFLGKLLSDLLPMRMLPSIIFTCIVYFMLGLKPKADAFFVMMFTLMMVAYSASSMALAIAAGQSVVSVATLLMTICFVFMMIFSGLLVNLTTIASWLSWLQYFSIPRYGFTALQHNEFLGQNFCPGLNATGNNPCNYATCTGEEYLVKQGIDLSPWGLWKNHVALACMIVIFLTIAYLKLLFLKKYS
# [5] = microbe, parasite or virus in culture; type: functional; details: Mycobacterium tuberculosis
# [6] = THP-1 cell cytotoxicity, dose response, cytotoxicity control for non-replicating M. tuberculosis project (AID 489025); type: functional
# [7] = HepG2 cell cytotoxicity, dose response, cytotoxicity control for non-replicating M. tuberculosis project (AID 489018); type: functional; details: Mycobacterium tuberculosis
# cells [8] = type: functional
# [9] = HeLa cell cytotoxicity, dose response, cytotoxicity control for MgcRacGAP inhibitor project (AID 624300); type: functional
# [10] = target: T2, Rac GTPase-activating protein 1 (Homo sapiens, UniProt Q9H0H5); experiment: MgcRacGAP GTPase-activating activity inhibitors, confirmation, biochemical, ADP Hunter fluorescence, primary and confirmatory (AID 624330); type: functional
# T2 sequence (Q9H0H5 whole entry): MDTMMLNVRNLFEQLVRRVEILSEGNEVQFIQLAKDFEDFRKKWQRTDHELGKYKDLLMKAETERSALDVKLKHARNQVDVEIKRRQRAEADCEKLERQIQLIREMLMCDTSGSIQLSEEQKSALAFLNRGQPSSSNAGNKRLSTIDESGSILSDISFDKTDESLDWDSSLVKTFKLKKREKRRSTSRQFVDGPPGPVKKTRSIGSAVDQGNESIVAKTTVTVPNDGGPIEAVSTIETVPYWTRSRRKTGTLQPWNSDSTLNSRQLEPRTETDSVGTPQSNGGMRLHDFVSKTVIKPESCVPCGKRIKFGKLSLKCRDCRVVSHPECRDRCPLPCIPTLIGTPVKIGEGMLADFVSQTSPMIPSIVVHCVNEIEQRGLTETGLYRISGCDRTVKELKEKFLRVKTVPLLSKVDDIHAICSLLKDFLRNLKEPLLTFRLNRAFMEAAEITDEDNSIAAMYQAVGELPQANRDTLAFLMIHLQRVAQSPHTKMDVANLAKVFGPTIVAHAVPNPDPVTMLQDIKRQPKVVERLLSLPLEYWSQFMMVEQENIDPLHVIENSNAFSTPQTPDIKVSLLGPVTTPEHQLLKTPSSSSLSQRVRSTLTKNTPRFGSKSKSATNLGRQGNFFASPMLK
# [11] = inhibitors of HIV Env-driven cell fusion, dose response, cherry-pick (AID 652057); type: functional, cell-based
# [12] = CEM21 lymphoblast cell cytotoxicity, dose response, cytotoxicity control for viral fusion inhibitor project, CellTiter-Glo luminescence, cherry-picked (AID 652042); type: functional, cell-based;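 further: potency for signal decrease meaning cytotoxicity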
# [13] = ZM109 Env clade C HIV-1 fusion inhibitors, dose response, HeLa effector, CEM target cells, luciferase, cherry-pick (AID 652058); type: functional, cell-based
# [14] = off-target signal loss in HeLa-CEM21 co-culture – HeLa F-luc CTL cells, cherry-picked, counter-screen for HIV-1 Env fusion inhibitor project, dose response (AID 652040); type: functional, cell-based;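 further: potency for signal decrease marking cytotoxic or nonspecific inhibition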
# [15] = inhibitors of clade B AD8 Env fusion, dose response, cell-based, cherry-pick (AID 652062); type: functional;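 further: luciferase signal from cell-cell fusion driven by HIV-1 clade B AD8 Env; potency is for inhibitors of fusion seen as a drop in luminescence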
# [16] = target: Arf-GAP with SH3 domain, ANK repeat and PH domain-containing protein 1 (Homo sapiens, UniProt Q9ULH1); type: functional;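 further: biochemical fluorescence polarization dose–response screen measuring inhibition of ASAP1; ASAP1 GAP domain stimulating GTP hydrolysis by truncated human ARF1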
# Chain of Arf-GAP with SH3 domain, ANK repeat and PH domain-containing protein 1 (Q9ULH1 whole entry, the tested form may be a part): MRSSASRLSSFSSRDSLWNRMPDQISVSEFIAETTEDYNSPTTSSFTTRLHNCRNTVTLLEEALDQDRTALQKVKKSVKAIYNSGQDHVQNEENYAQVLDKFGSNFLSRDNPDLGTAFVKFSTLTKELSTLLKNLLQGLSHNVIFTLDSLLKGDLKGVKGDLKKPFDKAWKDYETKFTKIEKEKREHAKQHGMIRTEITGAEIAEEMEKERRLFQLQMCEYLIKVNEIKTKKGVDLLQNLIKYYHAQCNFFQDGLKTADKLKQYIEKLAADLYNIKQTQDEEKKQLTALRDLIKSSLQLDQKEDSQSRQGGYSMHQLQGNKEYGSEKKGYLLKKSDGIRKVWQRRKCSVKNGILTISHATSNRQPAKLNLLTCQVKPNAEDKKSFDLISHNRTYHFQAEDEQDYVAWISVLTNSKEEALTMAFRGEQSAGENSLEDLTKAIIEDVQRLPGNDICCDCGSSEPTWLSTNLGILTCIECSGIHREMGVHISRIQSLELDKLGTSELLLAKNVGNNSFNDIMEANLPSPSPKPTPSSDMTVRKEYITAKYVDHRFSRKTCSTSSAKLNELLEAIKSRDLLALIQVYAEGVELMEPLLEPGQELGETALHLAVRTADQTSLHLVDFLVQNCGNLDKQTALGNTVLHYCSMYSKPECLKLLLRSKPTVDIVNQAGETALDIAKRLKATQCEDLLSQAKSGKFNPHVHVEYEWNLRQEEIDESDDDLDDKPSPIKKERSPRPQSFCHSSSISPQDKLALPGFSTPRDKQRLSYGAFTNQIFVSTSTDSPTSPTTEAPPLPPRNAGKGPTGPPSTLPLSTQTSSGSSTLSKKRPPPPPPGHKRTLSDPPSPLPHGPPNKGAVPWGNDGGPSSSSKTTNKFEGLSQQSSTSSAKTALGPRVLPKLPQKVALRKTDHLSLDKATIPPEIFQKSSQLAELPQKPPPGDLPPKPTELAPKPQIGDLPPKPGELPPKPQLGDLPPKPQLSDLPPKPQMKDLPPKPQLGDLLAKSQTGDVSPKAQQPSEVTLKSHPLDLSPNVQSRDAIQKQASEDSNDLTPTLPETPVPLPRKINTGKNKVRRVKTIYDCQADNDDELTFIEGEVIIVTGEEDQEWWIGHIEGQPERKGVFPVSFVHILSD
# cells [17] = experiment: cells
# Beta-lactamase [18] = target: Beta-lactamase (Salmonella choleraesuis (strain SC-B67), UniProt Q5J463); experiment: Epi-absorbance-based counterscreen for selective VIM-2 inhibitors: dose response biochemical high throughput screening assay to identify inhibitors of TEM-1 serine-beta-lactamase.
# Chain of Beta-lactamase (Salmonella choleraesuis (strain SC-B67), UniProt Q5J463) (Q5J463 whole entry): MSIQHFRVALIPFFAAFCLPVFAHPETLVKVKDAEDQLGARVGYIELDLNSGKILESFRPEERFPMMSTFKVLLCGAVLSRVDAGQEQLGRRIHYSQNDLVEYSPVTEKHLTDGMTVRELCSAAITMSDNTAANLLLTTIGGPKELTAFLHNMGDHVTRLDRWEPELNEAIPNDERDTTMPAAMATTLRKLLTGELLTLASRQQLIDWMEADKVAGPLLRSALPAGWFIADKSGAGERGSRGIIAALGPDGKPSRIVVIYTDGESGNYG
# Beta-lactamase [19] = target: T3, Beta-lactamase (Pseudomonas aeruginosa, UniProt Q79MP6); experiment: IMP-1 metallo-beta-lactamase inhibitors, dose response, selectivity assay for VIM-2 inhibitor project, biochemical, epi-absorbance (AID 1920)
# T3 sequence (Q79MP6 whole entry): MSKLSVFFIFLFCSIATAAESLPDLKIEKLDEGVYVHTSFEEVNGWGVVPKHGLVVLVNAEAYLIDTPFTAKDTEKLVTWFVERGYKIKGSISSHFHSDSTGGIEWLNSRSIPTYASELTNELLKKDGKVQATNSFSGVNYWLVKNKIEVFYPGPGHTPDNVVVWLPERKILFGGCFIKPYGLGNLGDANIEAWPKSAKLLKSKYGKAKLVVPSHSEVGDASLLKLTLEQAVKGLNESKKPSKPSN
# Beta-lactamase [20] = target: T3, Beta-lactamase; experiment: […] counterscreen for selective VIM-2 inhibitors: dose response biochemical high throughput screening assay to identify inhibitors of IMP-1 metallo-beta-lactamase.
# Trypsin = Trypsin (Sus scrofa, UniProt P00761); experiment: porcine trypsin inhibitors, dose response, selectivity assay for Rce1 protease inhibitor project, biochemical, quenched peptide fluorescence, cherry-pick (AID 488789)
# Chain of Trypsin (P00761 whole entry): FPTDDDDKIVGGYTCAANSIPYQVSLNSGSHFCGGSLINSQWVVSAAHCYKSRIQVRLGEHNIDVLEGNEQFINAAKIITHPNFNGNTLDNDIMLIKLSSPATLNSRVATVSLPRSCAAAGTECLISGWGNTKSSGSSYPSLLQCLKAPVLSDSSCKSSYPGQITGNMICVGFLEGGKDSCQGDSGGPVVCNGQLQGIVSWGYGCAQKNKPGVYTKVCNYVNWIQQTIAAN
# [21] = HEK293 cell viability, dose response, counter-screen for EBV LMP1 inhibitor project, dry powder, set 2 (AID 624374); type: functional
structure (smiles),measurement,setting,value
COc1cccc(-c2nc(N3CC(C)CC(C)C3)c3ccccc3n2)c1O (stereo unspecified),EC50,[1],5.15 µM (active)
same,EC50,Streptokinase A,6.53 µM (active)
same,EC50,[2],1.84 µM (active)
same,EC50,[3],> 60 µM (not active)
same,EC50,Streptococcus,82.5 µM (active)
same,EC50,[4],1.04 µM (active)
CC(NCCCOc1cccc2ccccc12)c1ccccc1 (stereo unspecified),CC50,[5],23.1 µM (active)
same,CC50,[6],13.5 µM (active)
same,CC50,[7],> 20 µM (active)
same,IC50,cells [8],35.9 µM (active)
same,CC50,[9],36.2 µM (active)
same,IC50,[10],161 µM (active)
same,AC50,[11],2.23 µM (active)
same,AC50,[12],17.4 µM (active)
same,AC50,[13],14.6 µM (active)
same,AC50,[14],6.96 µM (active)
same,AC50,[15],19.2 µM (active)
COc1cc2oc3ccc(C#Cc4ccccn4)cc3c(=O)c2cc1OC,EC50,[2],< 0.1 µM (active)
same,EC50,[3],> 60 µM (not active)
same,IC50,[16],44.1 µM (inactive)
same,EC50,cells [17],0.183 µM (active)
CCCCn1c(S)nnc1-c1sccc1C,IC50,Beta-lactamase [18],> 59.6 µM (inactive)
same,IC50,Beta-lactamase [19],> 59.6 µM (inactive)
same,IC50,Beta-lactamase [20],> 59.6 µM (inactive)
same,AC50,Trypsin,10 µM (active)
CN(C)c1ccc2c(c1)[C@@H]1C[C@H](CC(=O)NCc3ccc(Oc4ccccc4)cc3)O[C@@H](CO)[C@@H]1O2,AbsAC35,[21],41.71 µM
